{"source": "patent US20050130909A1", "about": "(priority 2002, published 2005)", "format_in_all_cases": "in vivo, human", "key": {"[1]": {"system": "skin and soft tissue infections (SSTI)", "assay": "Phase II SSTI trial: clinical response (success = cure or improvement)", "conditions": "for Clinical success rate at FU, patients with MRSA: MITT population; for Clinical success rate, exploratory subanalysis: patients with deep or complicated SSTI at baseline", "procedure": "(§1) This randomized, controlled study evaluated the safety and efficacy of two dose regimens of dalbavancin.\n(§2) There were 62 patients randomized into the study; all received at least one dose of study medication. Four study populations were evaluated for safety and efficacy and were defined as follows: The intent-to-treat (ITT) population included all patients who received at least one dose of study drug (all randomized study subjects).\nThe effectiveness of the three treatment regimens was determined by assessing the patients' clinical response and the documented or presumed microbiological responses. The primary efficacy endpoint was clinical response at the follow-up visit for the clinically evaluable population. Clinical response, for both EOT and FU visits, was categorized as success (cure or improvement) or failure (including indeterminate results). Patients classified as successes must not have received additional systemic antibacterial treatment for their infection. Failure was defined as persistence of one or more local or systemic signs and symptoms of SSTI such that treatment with new or additional systemic antibacterial agents was required for the SSTI."}, "[2]": {"system": "Methicillin-sensitive S. aureus", "assay": "Phase II SSTI trial: microbiological response by pathogen", "conditions": "MITT at FU", "procedure": "as §1, §2\n(§3) Microbiological outcome, a secondary efficacy variable, was assessed in the subpopulation of patients who had microbiologically documented SSTI (i.e., at least one identified baseline pathogen). A microbiologic response was assessed for each Gram-positive pathogen identified at baseline (i.e., eradication, presumed eradication, persistence, presumed persistence). For patients for whom follow-up cultures were not performed, the microbiologic responses for baseline pathogens were presumed on the basis of the clinical response. Microbiologic response by patient at the EOT and FU visits was graded as success (i.e., all Gram-positive organisms eradicated or presumed eradicated) or failure (i.e., at least one Gram-positive organism persisted or presumed to have persisted, multiple pathogens with partial eradication). At both the EOT and FU visits, colonization and superinfection were assessed. At the FU visit, a patient's bacteriological response could also include recurrence."}, "[3]": {"system": "Miscellaneous streptococcus species", "assay": "Phase II SSTI trial: microbiological response by pathogen", "conditions": "MITT at FU", "procedure": "as §1, §2, §3"}, "[4]": {"system": "S. aureus", "assay": "Phase II SSTI trial: microbiological response by pathogen", "conditions": "for Success rate by pathogen: All S. aureus: MITT at FU; for S. aureus eradication rate: microbiologically-evaluable population at FU", "procedure": "as §1, §2, §3"}, "[5]": {"assay": "Phase II SSTI trial: adverse events (ITT population)", "procedure": "as §1\nEach patient who received at least one dose of study drug (ITT population) was evaluated for drug safety through monitoring of adverse events (AE), including abnormal clinical laboratory test results and vital signs. AE were rated by the investigator as to their severity (mild, moderate, severe, life-threatening), and by the relationship to the study drug (not related, unlikely related, possibly related, or probably related)."}, "[6]": {"assay": "Phase II SSTI trial: dalbavancin plasma concentrations"}, "[7]": {"conditions": "single-dose dalbavancin (N = 20)"}}, "data": [{"smiles": "CN[C@H]1C(=O)N[C@@H]2Cc3ccc(cc3)Oc3cc4cc(c3O[C@@H]3O[C@H](C(=O)O)[C@@H](O)[C@H](O)[C@H]3NC(=O)CCCCCCCCC(C)C)Oc3ccc(cc3Cl)[C@@H](O)[C@@H]3NC(=O)[C@H](NC(=O)[C@@H]4NC(=O)[C@@H](NC2=O)c2cc(cc(O)c2Cl)Oc2cc1ccc2O)c1ccc(O)c(c1)-c1c(O[C@H]2O[C@H](CO)[C@@H](O)[C@H](O)[C@@H]2O)cc(O)cc1[C@@H](C(=O)NCCCN(C)C)NC3=O", "note": "[Dalbavancin]", "values": [{"measurement": "Clinical success rate", "setting": "[1]; Clinically evaluable at EOT, single-dose 1100 mg", "result": "13/16 (61.5) %"}, {"measurement": "Clinical success rate", "setting": "[1]; Clinically evaluable at EOT, two-dose 1000/500 mg", "result": "16/17 (94.1) %"}, {"measurement": "Clinical success rate", "setting": "[1]; ITT at EOT, single-dose dalbavancin 1100 mg IV day 1", "result": "15/20 (75.0) %"}, {"measurement": "Clinical success rate", "setting": "[1]; ITT at EOT, two-dose dalbavancin 1000 mg day 1 + 500 mg day 8 IV", "result": "19/21 (90.5) %"}, {"measurement": "Clinical success rate", "setting": "[1]; ITT at FU, single-dose 1100 mg", "result": "12/20 (60.0) %"}, {"measurement": "Clinical success rate", "setting": "[1]; ITT at FU, two-dose 1000/500 mg", "result": "19/21 (90.5) %"}, {"measurement": "Clinical success rate", "setting": "[1]; MITT at EOT, single-dose 1100 mg", "result": "10/14 (71.4) %"}, {"measurement": "Clinical success rate", "setting": "[1]; MITT at EOT, two-dose 1000/500 mg", "result": "12/13 (92.3) %"}, {"measurement": "Clinical success rate", "setting": "[1]; MITT at FU, single-dose 1100 mg", "result": "7/14 (50.0) %"}, {"measurement": "Clinical success rate", "setting": "[1]; MITT at FU, two-dose 1000/500 mg", "result": "12/13 (92.3) %"}, {"measurement": "Clinical success rate at FU, patients with MRSA", "setting": "[1]; single-dose dalbavancin", "result": 50, "unit": "%"}, {"measurement": "Clinical success rate at FU, patients with MRSA", "setting": "[1]; two-dose dalbavancin", "result": 80, "unit": "%"}, {"measurement": "Clinical success rate", "setting": "[1]; Microbiologically evaluable at EOT, single-dose 1100 mg", "result": "10/13 (76.9) %"}, {"measurement": "Clinical success rate", "setting": "[1]; Microbiologically evaluable at EOT, two-dose 1000/500 mg", "result": "10/11 (90.9) %"}, {"measurement": "Clinical success rate", "setting": "[1]; Microbiologically evaluable at FU, single-dose 1100 mg", "result": "6/11 (54.5) %"}, {"measurement": "Clinical success rate", "setting": "[1]; Microbiologically evaluable at FU, two-dose 1000/500 mg", "result": "10/11 (90.9) %"}, {"measurement": "Clinical success rate, exploratory subanalysis", "setting": "[1]; single-dose dalbavancin", "result": 58.3, "unit": "%"}, {"measurement": "Clinical success rate, exploratory subanalysis", "setting": "[1]; two-dose dalbavancin", "result": 93.8, "unit": "%"}, {"measurement": "Success rate by pathogen: Methicillin-sensitive", "setting": "[2]; single-dose 1100 mg", "result": "2/7 (29%)"}, {"measurement": "Success rate by pathogen: Methicillin-sensitive", "setting": "[2]; two-dose 1000/500 mg", "result": "5/6 (83%)"}, {"measurement": "Success rate by pathogen: Miscellaneous streptococcus species", "setting": "[3]; single-dose 1100 mg", "result": "2/3 (67%)"}, {"measurement": "Success rate by pathogen: Miscellaneous streptococcus species", "setting": "[3]; two-dose 1000/500 mg", "result": "4/4 (100%)"}, {"measurement": "Success rate by pathogen: All S. aureus", "setting": "[4]; single-dose 1100 mg", "result": "5/13 (38%)"}, {"measurement": "Success rate by pathogen: All S. aureus", "setting": "[4]; two-dose 1000/500 mg", "result": "9/11 (82%)"}, {"measurement": "S. aureus eradication rate", "setting": "[4]; single-dose dalbavancin", "result": 50, "unit": "%"}, {"measurement": "S. aureus eradication rate", "setting": "[4]; two-dose dalbavancin", "result": 90, "unit": "%"}, {"measurement": "Hepatotoxicity or nephrotoxicity", "setting": "[5]; Phase II trial", "result": "no evidence that dalbavancin induces any degree of clinically significant hepatotoxicity or nephrotoxicity"}, {"measurement": "Serious adverse events related to study drug", "setting": "[5]; Phase II trial, both dalbavancin regimens", "result": "no serious adverse events related to study drug treatment"}, {"measurement": "Tolerability", "setting": "[5]; Phase II trial, both doses", "result": "well tolerated"}, {"measurement": "AE leading to discontinuation of study medication", "setting": "[5]; [7]", "result": 0}, {"measurement": "Patients with ≧1 AE", "setting": "[5]; [7]", "result": 95, "unit": "%"}, {"measurement": "≧1 AE possibly/probably related to treatment", "setting": "[5]; [7]", "result": 55, "unit": "%"}, {"measurement": "≧1 AE possibly/probably related to treatment", "setting": "[5]; single-dose dalbavancin (N = 20), listed as dalbavancin", "result": 55, "unit": "%"}, {"measurement": "AE leading to discontinuation of study medication", "setting": "[5]; two-dose dalbavancin (N = 21)", "result": 0}, {"measurement": "Adverse event: Constipation", "setting": "[5]; two-dose dalbavancin (N = 21)", "result": 4.8, "unit": "%"}, {"measurement": "Patients with ≧1 AE", "setting": "[5]; two-dose dalbavancin (N = 21)", "result": 76.2, "unit": "%"}, {"measurement": "≧1 AE possibly/probably related to treatment", "setting": "[5]; two-dose dalbavancin (N = 21)", "result": 48, "unit": "%"}, {"measurement": "≧1 AE possibly/probably related to treatment", "setting": "[5]; two-dose dalbavancin (N = 21), listed as dalbavancin", "result": 48, "unit": "%"}, {"measurement": "Dalbavancin plasma level maintained", "setting": "[6]; additional week, with an additional dose of 500 mg IV on day 8", "result": "greater than 20 mg/l"}, {"measurement": "Mean dalbavancin plasma concentration (mean±SD)", "setting": "[6]; single-dose regimen 1100 mg IV, Study day 8", "result": "31.1 ± 7.1", "unit": "mg/L"}, {"measurement": "Mean dalbavancin plasma concentration (mean±SD)", "setting": "[6]; single-dose regimen, Study day 10", "result": "25.2 ± 4.8", "unit": "mg/L"}]}]}
